Experiments:
LS180 and HCT116 cells [1] = test: Cell growth curve assay; assay type: cell-based; details: 0.001, 0.003 µmol/L, counts over 6 days
Experimental: Cell proliferation was examined by a cell growth curve assay and a clone formation assay. Colorectal cancer cells (LS180 and HCT116 cells) were plated onto six-well plates at a density of 8000 cells per well. […] The number of cells was measured 24 h after the drug treatments. Growth curves were generated from cell counts over 6 consecutive days. For the clone formation assay, colorectal cancer cells (LS180 and HCT116 cells) were plated onto six-well plates at a density of 800 cells per well. […] Cells were then incubated with designated concentrations of PCC0208037. Fourteen days later, cells were stained with a crystal violet solution, and clones were counted.
Figure 2 Effect of PCC0208037 on cell growth. (A) Cell growth curves of LS180 cells under different treatments. (B) Cell growth curves of HCT116 cells under different treatments. The data were expressed as the mean ± SD (n = 3). * p < 0.05 as compared to the control.

LS180 and HCT116 cells [2] = test: Western blot of DNA damage and apoptosis related proteins; assay type: cell-based; details: 0.01 and 0.03 μM, compared to control
Experimental: Effects of PCC0208037 on the protein expression levels were examined by Western blotting, as described previously. Briefly, 2 × 10^6 LS180 and HCT116 cells were seeded in 10-cm dishes to adhere overnight. […] At the desired time points, cells were washed twice with a cold PBS. Then, cells were lysed in the RIPA buffer for 30 min on ice. The RIPA buffer contains protease inhibitors and phosphatase inhibitors. After sonication, the samples were centrifuged at 12,000 rpm, and then the supernatants were harvested and assayed for the protein concentration. Equal amounts of protein (30 μg) were separated with a polyacrylamide gel and transferred to a PVDF membrane. The membranes were blocked for 2 h (in 5% skim milk) and then incubated with primary antibodies overnight at 4 °C: ATM p-ATM, ATR, p-ATR, Chk1, p-Chk1, Chk2, p-Chk2, P53, p-P53, Bcl2, gamma H2AX, Bax, Puma, β-actin, and GAPDH. Then, the membranes were incubated with secondary antibodies for 2 h at room temperature. All these antibodies were diluted to a 1:1000 concentration in use. The immunoblots were visualized by a BeyoECL Plus enhanced chemiluminescence system.
Figure 6 Effects of PCC0208037 on molecules related to DNA damage in CRC cells. […]

LS180 xenograft tumor = test: Subcutaneous LS180 xenograft model; assay type: in vivo, nude mice; details: for tumor inhibition rate (tumor weight): 15 d
Experimental: To establish xenograft tumor models, RPMI 1640 and Matrigel were mixed at a 1:1 ratio. Colorectal cancer cells (LS180: 5 × 10^6 cells) were added to 0.1 mL of the mixture, and male nude mice were subcutaneously injected with colorectal cancer cells on the right side. […] Tumor volume and animal weight were measured every 3 days and continued until the end of the experiments. All mice were euthanized by cervical dislocation at the end of the experiment, and the xenograft tumors were removed and weighed.
Figure 8 Anti-tumor effect of PCC0208037 in the LS180 xenograft tumor model. (A) Representative tumors removed after the last treatment in each treatment group. (B) Body weight gain curves of mice bearing an LS180 xenograft tumor. (C) Tumor weights in the different groups of mice after 15 d of treatment.

CCc1c2c(nc3ccc(O)cc13)-c1cc3c(c(=O)n1C2)COC(=O)[C@@]3(CC)OC(=O)Nc1nc(=O)n([C@@H]2O[C@H](C)[C@@H](O)[C@H]2O)cc1F [PCC0208037]
cell growth ability (cell growth curve) (LS180 and HCT116 cells [1]): decreased the cell growth ability in a dose-dependent manner
protein levels of molecules associated with DNA damage (LS180 and HCT116 cells [2]; 8 h): significantly up-regulated the protein levels of γ-H2AX, p-ATM, p-Chk1, p-Chk2, p-P53, and P53
protein levels of molecules associated with apoptosis (LS180 and HCT116 cells [2]; 24 h): significantly up-regulated the protein levels of BAX and PUMA and down-regulated the protein level of Bcl-2
tumor inhibition rate (tumor weight) (LS180 xenograft tumor; 5 mg/kg i.v. once every 3 days): 29.9%
tumor inhibition rate (tumor weight) (LS180 xenograft tumor; 10 mg/kg i.v. once every 3 days): 37.2%
tumor inhibition rate (tumor weight) (LS180 xenograft tumor; 20 mg/kg i.v. once every 3 days): 50.8%
effect on body weight of tumor-bearing mice (LS180 xenograft tumor; PCC0208037 5, 10, 20 mg/kg, CPT-11 10 mg/kg, i.v. once every 3 days): without impacting the normal feeding and body weight gain
